Here are results for 3 compounds from ChEMBL document CHEMBL1149411, “Application of fragment screening and fragment linking to the discovery of novel thrombin inhibitors” (J Med Chem, 2006).

Active and inactive are the calls of the source. The calls are words filed in the database; no cut-off is given here.

The target in test [1] is T1, Prothrombin (Homo sapiens, UniProt P00734). In words: Inhibitory activity against Thrombin.
Test [2] concerns the target T1, Prothrombin. In words: Inhibition of Thrombin at 300 uM.
A further test addresses Trypsin (Homo sapiens, UniProt P07477+P07478+P35030). Put plainly: Inhibitory activity against trypsin. In kind it is protein assay.

Consider `COc1cc(C)c(S(=O)(=O)NC[C@@H](O)[C@H](Cc2ccccc2)NCc2cc(Cl)ccc2-n2cnnn2)c(C)c1C`, for which the IC50 against Prothrombin [1] stood at 1.4 nM.
For the compound `NCc1cccc(Cl)c1`, the inhibition entry on Prothrombin [2] was “inactive”.
On to `COc1cc(C)c(S(=O)(=O)NC[C@@H](O)[C@H](Cc2ccccc2)NCc2cccc(Cl)c2)c(C)c1C`, for which, at Trypsin, the IC50 was over 100000 nM.
